# According to patent publication US10046060B2, “Co-administration of an agent linked to an internalization peptide with an anti-inflammatory” (NoNO Inc., priority 2007, dated 2018):
# Ends that are not written are not given here.
# Key:
# humans = assay: Safety, Tolerability and Pharmacokinetic Study in humans: blood histamine; type: in vivo, human
# Procedure: We carried out a Safety, Tolerability and Pharmacokinetic Study of Tat-NR2B9c in humans. Subjects were either normal, healthy, non-smoking males or post-menopausal or surgically sterile female subjects with a minimum age of 18 years. The subjects were either administered Tat-NR2B9c, Lot #: 124-134-001B, or were given placebo (Phosphate Buffered Saline), Lot #: 124-134-001A, administered as an intravenous infusion (10±1 minutes). Four subjects were dosed in each of Cohorts 1 to 3, and 10 subjects were dosed in each of Cohorts 4 to 8. All 62 subjects completed the study. Treatment periods for each cohort were as follows: Cohort 1: Sep. 14, 2006; Cohort 2: Sep. 26, 2006; Cohort 3: Oct. 6, 2006; Cohort 4: Oct. 20, 2006; Cohort 5: Nov. 6, 2006; Cohort 6: Dec. 4, 2006; Cohort 7: Dec. 17, 2006; Cohort 8: Feb. 25, 2007.
# During the study period, 11 blood samples were collected for pharmacokinetic analysis from each subject at the following timepoints: 0.00 (pre-dose), 0.08 (5 minutes), 0.17 to 0.25 (10 to 15 minutes, precisely at the end of each individual drug infusion), 0.33 (20 minutes), 0.50, 0.75, 1.00, 2.00, 6.00, 12.00, and 24.00 hours post-dose. In addition, 8 blood samples were collected for histamine analysis from each subject at the following timepoints: 0.00 (pre-dose), and at 0.08 (5 minutes), 0.17 (10 minutes), 0.25, 0.50, 1.00, 2.00, and 24.00 hours post-dose.
# [1] = Maximum Tolerated Dose in preclinical animal trials, dogs; settings: dog, in vivo
sequence,measurement,setting,value
YGRKKRRQRRRKLSSIESDV [Tat-NR2B9c],Number of Subjects with Histamine levels >10 nmol/L,"humans; NA-1 0.375 mg/kg (n = 8), Screening",1
same,Number of Subjects with Histamine levels >10 nmol/L,"humans; NA-1 0.75 mg/kg (n = 8), Day 1, 0.00 hr",0
same,Number of Subjects with Histamine levels >10 nmol/L,"humans; NA-1 0.75 mg/kg (n = 8), Day 1, 0.08 hr",0
same,Number of Subjects with Histamine levels >10 nmol/L,"humans; NA-1 0.75 mg/kg (n = 8), Day 1, 0.17 hr",0
same,Number of Subjects with Histamine levels >10 nmol/L,"humans; NA-1 0.75 mg/kg (n = 8), Day 1, 0.25 hr",0
same,Number of Subjects with Histamine levels >10 nmol/L,"humans; NA-1 0.75 mg/kg (n = 8), Day 1, 0.50 hr",0
same,Number of Subjects with Histamine levels >10 nmol/L,"humans; NA-1 0.75 mg/kg (n = 8), Day 1, 1.00 hr",0
same,Number of Subjects with Histamine levels >10 nmol/L,"humans; NA-1 0.75 mg/kg (n = 8), Day 1, 2.00 hr",0
same,Number of Subjects with Histamine levels >10 nmol/L,"humans; NA-1 0.75 mg/kg (n = 8), Day 1, 24.00 hr",0
same,Number of Subjects with Histamine levels >10 nmol/L,"humans; NA-1 0.75 mg/kg (n = 8), Day 7",0
same,Number of Subjects with Histamine levels >10 nmol/L,"humans; NA-1 0.75 mg/kg (n = 8), Day 14",0
same,Number of Subjects with Histamine levels >10 nmol/L,"humans; NA-1 0.75 mg/kg (n = 8), Day 28 End-of-study",0
same,Number of Subjects with Histamine levels >10 nmol/L,"humans; NA-1 0.75 mg/kg (n = 8), Screening",0
same,Number of Subjects with Histamine levels >10 nmol/L,"humans; NA-1 1.50 mg/kg (n = 8), Day 1, 0.00 hr",0
same,Number of Subjects with Histamine levels >10 nmol/L,"humans; NA-1 1.50 mg/kg (n = 8), Day 1, 0.08 hr",0
same,Number of Subjects with Histamine levels >10 nmol/L,"humans; NA-1 1.50 mg/kg (n = 8), Day 1, 0.17 hr",0
same,Number of Subjects with Histamine levels >10 nmol/L,"humans; NA-1 1.50 mg/kg (n = 8), Day 1, 0.25 hr",0
same,Number of Subjects with Histamine levels >10 nmol/L,"humans; NA-1 1.50 mg/kg (n = 8), Day 1, 0.50 hr",0
same,Number of Subjects with Histamine levels >10 nmol/L,"humans; NA-1 1.50 mg/kg (n = 8), Day 1, 1.00 hr",0
same,Number of Subjects with Histamine levels >10 nmol/L,"humans; NA-1 1.50 mg/kg (n = 8), Day 1, 2.00 hr",0
same,Number of Subjects with Histamine levels >10 nmol/L,"humans; NA-1 1.50 mg/kg (n = 8), Day 1, 24.00 hr",0
same,Number of Subjects with Histamine levels >10 nmol/L,"humans; NA-1 1.50 mg/kg (n = 8), Day 7",0
same,Number of Subjects with Histamine levels >10 nmol/L,"humans; NA-1 1.50 mg/kg (n = 8), Day 14",0
same,Number of Subjects with Histamine levels >10 nmol/L,"humans; NA-1 1.50 mg/kg (n = 8), Day 28 End-of-study",0
same,Number of Subjects with Histamine levels >10 nmol/L,"humans; NA-1 1.50 mg/kg (n = 8), Screening",0
same,Number of Subjects with Histamine levels >10 nmol/L,"humans; NA-1 2.60 mg/kg (n = 8), Day 1, 0.00 hr",0
same,Number of Subjects with Histamine levels >10 nmol/L,"humans; NA-1 2.60 mg/kg (n = 8), Day 1, 0.08 hr",0
same,Number of Subjects with Histamine levels >10 nmol/L,"humans; NA-1 2.60 mg/kg (n = 8), Day 1, 0.17 hr",0
same,Number of Subjects with Histamine levels >10 nmol/L,"humans; NA-1 2.60 mg/kg (n = 8), Day 1, 0.25 hr",0
same,Number of Subjects with Histamine levels >10 nmol/L,"humans; NA-1 2.60 mg/kg (n = 8), Day 1, 0.50 hr",0
same,Number of Subjects with Histamine levels >10 nmol/L,"humans; NA-1 2.60 mg/kg (n = 8), Day 1, 1.00 hr",0
same,Number of Subjects with Histamine levels >10 nmol/L,"humans; NA-1 2.60 mg/kg (n = 8), Day 1, 2.00 hr",0
same,Number of Subjects with Histamine levels >10 nmol/L,"humans; NA-1 2.60 mg/kg (n = 8), Day 1, 24.00 hr",0
same,Number of Subjects with Histamine levels >10 nmol/L,"humans; NA-1 2.60 mg/kg (n = 8), Day 7",0
same,Number of Subjects with Histamine levels >10 nmol/L,"humans; NA-1 2.60 mg/kg (n = 8), Day 14",0
same,Number of Subjects with Histamine levels >10 nmol/L,"humans; NA-1 2.60 mg/kg (n = 8), Day 28 End-of-study",0
same,Number of Subjects with Histamine levels >10 nmol/L,"humans; NA-1 2.60 mg/kg (n = 8), Screening",0
same,Number of Subjects with Histamine levels >10 nmol/L,"humans; NA-1 3.75 mg/kg (n = 8), Day 1, 0.00 hr",0
same,Number of Subjects with Histamine levels >10 nmol/L,"humans; NA-1 3.75 mg/kg (n = 8), Day 1, 0.08 hr",0
same,Number of Subjects with Histamine levels >10 nmol/L,"humans; NA-1 3.75 mg/kg (n = 8), Day 1, 0.17 hr (10 minutes)",7 of the 8
same,Number of Subjects with Histamine levels >10 nmol/L,"humans; NA-1 3.75 mg/kg (n = 8), Day 1, 0.17 hr (10 minutes), listed as NA 1, 3.75 mg/kg",Seven of 8
same,Number of Subjects with Histamine levels >10 nmol/L,"humans; NA-1 3.75 mg/kg (n = 8), Day 1, 0.17 hr (10 minutes), listed as NA-1, 3.75 mg/kg",7
same,Number of Subjects with Histamine levels >10 nmol/L,"humans; NA-1 3.75 mg/kg (n = 8), Day 1, 0.25 hr (15 minutes)",3
same,Number of Subjects with Histamine levels >10 nmol/L,"humans; NA-1 3.75 mg/kg (n = 8), Day 1, 0.50 hr",0
same,Number of Subjects with Histamine levels >10 nmol/L,"humans; NA-1 3.75 mg/kg (n = 8), Day 1, 1.00 hr",0
same,Number of Subjects with Histamine levels >10 nmol/L,"humans; NA-1 3.75 mg/kg (n = 8), Day 1, 2.00 hr",0
same,Number of Subjects with Histamine levels >10 nmol/L,"humans; NA-1 3.75 mg/kg (n = 8), Day 1, 24.00 hr",0
same,Number of Subjects with Histamine levels >10 nmol/L,"humans; NA-1 3.75 mg/kg (n = 8), Day 7",0
same,Number of Subjects with Histamine levels >10 nmol/L,"humans; NA-1 3.75 mg/kg (n = 8), Day 14",0
same,Number of Subjects with Histamine levels >10 nmol/L,"humans; NA-1 3.75 mg/kg (n = 8), Day 28 End-of-study",0
same,Number of Subjects with Histamine levels >10 nmol/L,"humans; NA-1 3.75 mg/kg (n = 8), Screening",0
same,Time for abnormal histamine results to return to the normal range,humans; after drug administration,≤ 24.00 h
same,Abnormal histamine levels in other dose groups,humans; dose groups other than 3.75 mg/kg,no treatment group had significant abnormal levels of histamine
same,MTD,[1],12.5 mg/kg
